The results in this text go back to patent US10653691B2, “Method of promoting remyelination” (Case Western Reserve University, priority 2013, dated 2020).

The test system of series [1] is 414 different kinase isoforms. Briefly: Kinase profiling (LanthaScreen, Z'-LYTE, Adapta). Type of series: biochemical. The conditions noted are these: 414 kinase isoforms. The procedure:
LanthaScreen, Z9-LYTE, and Adapta kinase assays were performed by Select Screen (Life Technologies). LanthaScreen Eu kinase assays were performed in Greiner low-volume 384-well plates. Assay buffer consisted of 50 mM HEPES pH 7.5, 0.01% BRIJ-35, 10 mM MgCl2, 1 mM EGTA. Each well consisted of this mixture: 4.0 μl of 4 μM test drug in assay buffer, 8 μl of 2× kinase/Eu antibody mixture, and 4 μl of 4×Alexa Fluor 647 tracer. Plates were incubated for 60 min at room temperature (˜22° C.), then Alexa Fluor 647 emission (665 nm) and Europium emission (615 nm) read on a fluorescent plate reader. Data were analysed by generating the emission ratio (665 nm/615 nm) for each test point and normalizing 0% to control wells with no known inhibitor and 100% to control wells with highest concentration of known inhibitor.
Z′-LYTE assays were performed in Corning, low volume 384-well plates. Assay buffer consisted of 50 mM HEPES pH 7.5, 0.01% BRIJ-35, 10 mM MgCl2, 1 mM EGTA. […] Coumarin emission (445 nm) and fluorescein emission (520 nm) were read on a fluorescent plate reader. Data were analysed by normalizing out background fluorescence then generating the emission ratio (445 nm/520 nm) for each test point. […]
Adapta assays were performed in Corning, low volume 384-well plates. […] Alexa Fluor 647 emission (665 nm) and europium emission (615 nm) were read on a fluorescent plate reader. […]
A general note: Time-resolved FRET reads energy transfer from a long-lived donor to a nearby acceptor.

Series [2] has as its system ERK1/2. Briefly: Western blot of ERK1/2 phosphorylation in OPCs. Type of series: cell-based, mouse. The conditions noted are these: OPCs treated for 1 h. On the procedure: EpiSC-derived OPCs were seeded into poly-Lornithine/laminin coated six-well plates and allowed to attach for 2 h in DMEM/F12 without additional factors. Cells were treated with indicated inhibitors or DMSO for 1 h-SCH772984 (ChemieTek, […]), SB590885 (Tocris, 10 nM), LY294002 (Tocris, 10 μM), and PD0325901 (Stemgent, 1 μM). Cells were then stimulated with drug or FGF2 (R&DSystems; 20 ng ml^−1) for 1 h and then lysed in 200 μL RIPA buffer (0.15 M NaCl, 0.05M Tris, pH=8.0, 1 mM EDTA, 1% Triton X-100, 0.1% SDS, 10% glycerol, HALT protease and phosphatase inhibitor (Thermo Fisher) added just before use) and incubated on ice for 20 min. Lysates were centrifuged at 4° C. and supernatant collected. Protein concentrations were determined by Pierce BCA protein assay kit (Thermo Fisher). Equal amounts of protein were resolved in a reduced manner on NuPAGE 4-12% Bis-Tris gels (Life Technologies) and transferred onto PVDF membranes (Life Technologies). Blots were blocked in either 5% BSA (phosphoprotein) or 5% milk (non phosphoprotein). Primary antibodies were all from the same vendor (Cell Signaling) and included phospho-Erk1/2 (4370S, clone D13.14.4E; 1:2,000), ERK1/2 (9107S, clone 3A7; 1:2,000), phospho-glucocorticoid receptor (4161S; 1:1,000), and glucocorticoid receptor (12041, clone D6H2L; 1:1,000) followed by incubation with HRP-conjugated secondary antibodies and chemiluminescent enhancement by West Pico substrate (Thermo Fisher).

For series [3], the system named is OPCs. As to the kind of experiment: HCA of astrocyte induction (GFAP). Type of series: cell-based, mouse. The conditions noted are these: 72 h, in vitro. On the procedure: For the astrocyte experiments in FIG. 3C, the experimental setup was identical to the PLP1-based primary validation screen except plates were stained for GFAP (DAKO, Z0334; 1:5,000). BMP4 (R&D Systems; 50 ng ml^−1) and LIF (Millipore; 10^3 U ml^−1) were used as the positive control for astrocyte induction. Assay plates were imaged on the Operetta High Content Imaging and Analysis system and a set of 14×20 fields captured. Columbus Data Management and Analysis System software (PerkinElmer) was used to quantify the percentage of GFAP1 astrocytes in each well using a method similar to that developed for oligodendrocytes.

The test system of series [4] is corpus callosum of mouse pups. Briefly: Developmental myelination in mouse pups. Type of series: in vivo. The conditions noted are these: for number of CC1+ oligodendrocytes in the lateral corpus callosum / portion/length of corpus callosum covered by MBP+ fibres: pups treated daily for 4 days from postnatal day 2, clobetasol 2 mg/kg, miconazole 10 mg/kg i.p., vs vehicle. From the text:
On postnatal day 6 the pups were anaesthetized using ketamine and xylazine and euthanized by transcardial perfusion with 4% PFA. Tissue was fixed overnight in 4% PFA, equilibrated in 30% sucrose, and embedded in OCT. Sections (20 μm) were cut and processed for CC1 and MBP immunohistochemistry. ImageJ was then used to count and measure area of the corpus callosum as well as measure the extent of the corpus callosum length covered by MBP1 processes. Eight coronal sections containing corpus callosum rostral to the hippocampus from at least three animals per group were used for these analyses. To quantitate extent of MBP in the corpus callosum, a line was drawn through the centre of the corpus callosum from the lateral tip to the dorsal most extent of MBP expression in the corpus callosum. The length of this line was measured and then the dorsal-most point of the line was extended to the dorsal tip of the corpus callosum and measured to yield the length of the lateral callosum. The two numbers were divided to get the MBP/corpus callosum proportion. A two-tailed t-test was used to compare drug—with vehicle-treated groups.

[5] abbreviates: 2 mg/kg daily i.p., postnatal day 2-6.

Entries after “also recorded” stand apart in the source; their conditions may differ.

Consider `Clc1ccc(COC(Cn2ccnc2)c2ccc(Cl)cc2Cl)c(Cl)c1` (stereo not drawn) [miconazole], for which the “inhibition of kinase activity” value in series [1] was “Neither clobetasol nor miconazole inhibited any of the kinases tested”. Also, the “induction of ERK1/2 phosphorylation in OPCs” value in series [2] is “strong and sustained phosphorylation”. For the same compound, the “astrocyte formation from OPCs” value in series [3] is recorded as “neither drug showed a significant impact on astrocyte formation”. Besides, in series [4], the “number of CC1+ oligodendrocytes in the lateral corpus callosum” value is given as “significant increase in the number of CC1^+ oligodendrocytes; also recorded: marked increase in the number of CC1-positive oligodendrocytes” and the “portion/length of corpus callosum covered by MBP+ fibres” value is listed as “significantly larger portion of the corpus callosum was populated by MBP^+ fibre tracts; also recorded: significant increase in the length of the corpus callosum covered with aligned MBP^+ fibres”.
In the case of `C[C@H]1C[C@H]2[C@@H]3CCC4=CC(=O)C=C[C@]4(C)[C@@]3(F)[C@@H](O)C[C@]2(C)[C@@]1(O)C(=O)CCl` [clobetasol], the “inhibition of kinase activity” value in series [1] is reported as “Neither clobetasol nor miconazole inhibited any of the kinases tested”. For the same compound, the “induction of ERK1/2 phosphorylation in OPCs” value in series [2] was “did not induce ERK1/2 phosphorylation”. Besides, the “astrocyte formation from OPCs” value in series [3] is “neither drug showed a significant impact on astrocyte formation”. For the same compound, in series [4] (setting [5]), the “mortality of treated pups” value is “some animals of the cohort died before end of treatment”; the “sickness and body weight of treated pups” value is “exhibited sickness on the basis of this treatment, with low body weight”. Moreover, in series [4], the “number of CC1+ oligodendrocytes in the lateral corpus callosum” value is “significant increase in the number of CC1^+ oligodendrocytes; also recorded: marked increase in the number of CC1-positive oligodendrocytes” and the “portion/length of corpus callosum covered by MBP+ fibres” value is on record as “significantly larger portion of the corpus callosum was populated by MBP^+ fibre tracts; also recorded: significant increase in the length of the corpus callosum covered with aligned MBP^+ fibres”.
